Blank lines part the entries; values can stand above or below the molecule they belong to.
Tests used:
Type in all cases: physicochemical
[1] = Solvent solubility in aqueous MgCl2 solution (gas chromatography of aqueous phase)
Procedure: Hereafter, the stirring was stopped, the phases were allowed to separate and a sample was taken from the aqueous bottom phase. The concentration of solvent in this sample was determined by gas chromatography.

[2] = Extraction of different types of polycarboxylic acids; details: for DBE: distribution ratio in back extraction; for DFE: distribution ratio in forward extraction, feed 15 wt. % MgCl2
Source text: These tables also give the concentration ratio, which is the ratio between the acid concentration in the product and the acid concentration in the feed.

[3] = Stability of extraction solvent in contact with 2-hydroxy butyric acid feed solution (gas chromatography); details: 60° C.
Procedure: This experiment was conducted to compare the stability of two solvents, MIBK and Isoamyl alcohol in contact with the 2-hydroxy butyric acid feed solution prepared by adding 340 g of crystalline hydroxy butyric acid to 720 g water and mixing to complete dissolution. The thus prepared feed solution comprised 32 wt % of hydroxy butyric acid.
For each solvent a closed glass reactor was filled with 20 g of solvent and 20 g of the hydroxy butyric acid feed solution, put in an oven to maintain a temperature of 60° C. and shaken continuously. After 3 hours, 24 hours (1 day) and 168 hours (1 week) the shaking was stopped for 1 hour to allow the phases to settle, a sample was taken from the solvent top layer, and the composition of the solvent top layer analyzed by gas chromatography.

[4] = Lactic acid distribution ratio MIBK/aqueous MgCl2 solution; details: initial lactic acid 20 wt %
Source text: Forward extraction and back extraction as used in the method of the invention are based on the difference in solubility of the carboxylic acid in water and the organic solvent at different temperatures. The solubility of a compound in one solvent relative to another solvent can be expressed in terms of the distribution ratio (DR). This ratio gives an indication how a compound will be distributed over the aqueous phase (e.g. the aqueous mixture) and the organic phase (e.g. the organic liquid) in a two-phase system at equilibrium. The distribution ratio may be defined as the ratio of the carboxylic acid concentration dissolved in the organic phase ([carboxylic acid]organic) over the concentration of the carboxylic acid dissolved in water ([carboxylic acid]water), provided that the two phases are in equilibrium with each other: DR=[carboxylic acid]organic/[carboxylic acid]water (1)
The resulting two phase system was stirred at 20° C. or 60° C. for 30 minutes with sufficient speed to ensure that both phases are well dispersed. Hereafter, the stirring is stopped, the phases were allowed to separate and samples were taken from both phases. The concentration of lactic acid (wt %) in these samples was determined by potentiometric titration. Hereafter the distribution ratio was calculated as the ratio of the lactic acid concentration (wt %) in the MIBK organic solvent phase divided by the lactic acid concentration (wt %) in the aqueous phase.

[5] = Table 2.2, MgCl2 0 wt %, 20° C.
[6] = Table 2.2, MgCl2 15 wt %, 20° C.
[7] = Table 2.2, MgCl2 30 wt %, 20° C.

Structure (SMILES): CC(C)OC(C)C [Diisopropyl ether, reference compound]
Solvent solubility [1, 5]: 1.0 wt %
Solvent solubility [1, 6]: 0.4 wt %
Solvent solubility [1, 7]: 0.7 wt %

Structure (SMILES): O=C(O)/C=C/C(=O)O [Fumaric acid, fumaric acid]
DFE/DBE [2]: 7.29
DBE [2]: 0.24
DFE [2]: 1.75

Structure (SMILES): CC(C)CCO [Isoamyl alcohol, reference compound]
Solvent solubility [1, 5]: 2.8 wt %
Solvent solubility [1, 6]: 1.5 wt %
Solvent solubility [1, 7]: 0.6 wt %
isoamylhydroxybutyrate formed in solvent layer ([3]; 20 g solvent + 20 g 32 wt % hydroxy butyric acid feed, after 3 hours): 14.3 area %
isoamylhydroxybutyrate concentration in solvent layer ([3]; after 24 hours): 21.5 area %
isoamylhydroxybutyrate concentration in solvent layer ([3]; after 168 hours): 21.5 area %

Structure (SMILES): C=C(CC(=O)O)C(=O)O [Itaconic acid, itaconic acid]
DFE/DBE [2]: 2.64
DBE [2]: 1.07
DFE [2]: 2.83

Now from value to molecule, other results behind:

MIBK solubility ([1]; MgCl2 0 wt %, 20° C.): 1.8 wt %
MIBK solubility ([1]; MgCl2 0 wt %, 60° C.): 1.4 wt %
MIBK solubility ([1]; MgCl2 15 wt %, 20° C.): 0.48 wt %
MIBK solubility ([1]; MgCl2 15 wt %, 60° C.): 0.20 wt %
MIBK solubility ([1]; MgCl2 30 wt %, 20° C.): 0.17 wt %
MIBK solubility ([1]; MgCl2 30 wt %, 60° C.): 0.11 wt %
Solvent solubility [1, 5]: 1.8 wt %
Solvent solubility [1, 6]: 0.5 wt %
Solvent solubility [1, 7]: 0.1 wt %
Structure (SMILES): CC(=O)CC(C)C [MIBK, methyl-isobutylketone]
changes in the purity of the solvent ([3]; 20 g solvent + 20 g 32 wt % hydroxy butyric acid feed, after 168 hours): no changes in the purity of the MIBK could be detected

Lactic acid distribution ratio ([4]; MgCl2 0 wt %, 20° C.): 0.16 wt %/wt %
Lactic acid distribution ratio ([4]; MgCl2 0 wt %, 60° C.): 0.19 wt %/wt %
Lactic acid distribution ratio ([4]; MgCl2 10.5 wt %, 20° C.): 0.33 wt %/wt %
Lactic acid distribution ratio ([4]; MgCl2 10.5 wt %, 60° C.): 0.37 wt %/wt %
Lactic acid distribution ratio ([4]; MgCl2 16.0 wt %, 20° C.): 0.49 wt %/wt %
Lactic acid distribution ratio ([4]; MgCl2 16.0 wt %, 60° C.): 0.56 wt %/wt %
Structure (SMILES): CC(O)C(=O)O (stereo not shown) [lactic acid]

From US11299447B2, “Method for isolating a carboxylic acid from an aqueous solution” (PURAC BIOCHEM BV, priority 2011, dated 2022)
